According to US20120022151A1, “METHOD FOR PREVENTING DAMAGE TO NUCLEAR MEMBRANE OF SKIN CELL BY ADMINISTERING AMENTOFLAVONE” (Amorepacific Corporation, priority 2010, published 2012):

Assays:
Type in all cases: cell-based
[1] = system: progerin (mutant lamin A); test: Western blot of progerin (mutant lamin A) induced by UVB radiation; conditions: 5 μM amentoflavone prior to UVB 100 mJ/cm^2; cultured 6 days; cell extract from subject (FIG. 2)
Method: (§1) Cells of subjects […] were distributed in a 4-well chamber slide holding a medium prepared by adding 1% LSGS and 100 IU penicillin G to 106 medium at 100,000 cells/well. The cells were divided into a UVB-untreated negative control group, a UVB-treated group and a UVB/amentoflavone-treated group. The next day, the medium was replaced with 106 medium containing 1%
(§2) FBS. The amentoflavone-treated group was treated with 5 μM amentoflavone prior to UVB radiation. 24 hours later, after washing the well with PBS, UVB was irradiated at 100 mJ/cm^2 to the test groups. Then, after treating again with 106 medium containing 1% FBS, the cells were cultured at 37° C. for 6 days. The treated cells were subjected to western blot and immunofluorescence staining. For western blot, the cells were lysed using RIPA buffer (Sigma) and proteins were quantitated according to the Lowry's method. 10 μg of each protein was run on 4-12% Nupage gel (Invitrogen) and then transferred to NC membrane. The membrane was blocked with 5% BSA and reacted O/N at 4° C. with the lamin A mutant antibodies, progerin (Abcam) and p-H2AX (Millipore), diluted at 1:300 and 1:200, respectively, with 5% BSA. […] Then, after washing 3 times for 10 minutes with PBST, bands were detected using ECL and LAS3000.

phosphorylated H2AX = test: Immunofluorescence staining of phosphorylated H2AX after UVB radiation; conditions: 5 μM amentoflavone prior to UVB 100 mJ/cm^2; cultured 6 days; cells of the subject (FIG. 3)
Method: as §1
as §2, with “LAS3000. […]” for “LAS3000.”

cells of the subject = test: Immunofluorescence staining of lamin A: nuclear damage after UVB radiation; conditions: 5 μM amentoflavone prior to UVB 100 mJ/cm^2; cultured 6 days; cells of the subject (FIG. 3)
Method: as §1
as §2, with “LAS3000. […]” for “LAS3000.”

## O=c1cc(-c2ccc(O)c(-c3c(O)cc(O)c4c(=O)cc(-c5ccc(O)cc5)oc34)c2)oc2cc(O)cc(O)c12 [Amentoflavone]
[1]
  UVB-induced increase of progerin (mutant lamin A), western blot: decreased
Phosphorylated H2AX
  expression of phosphorylated H2AX, immunofluorescence: reduced
Cells of the subject
  structure of the cell nucleus (nuclear damage caused by lamin A defects), immunofluorescence: retained
